Where two headings read alike, the source gives them in different places.
Tested on: rat primary cortical cultures
Experiment: MEA recordings of spontaneous neuronal network activity
Assay type: cell-based
Settings: for IC50: Rattus norvegicus, value [CI]; for Increased potency to inhibit neuronal activity (MSR, MBR, and MNBR) compared to cathinones lacking the lengthened alkyl chain: acute and prolonged exposure
Protocol: Rat pups born of timed-pregnant Wistar rats (Envigo, Horst, Netherlands) were sacrificed on postnatal day 0–1 to prepare cortical cultures grown on MEA plates as described previously ([Zwartsen et al., 2018], [2019]). Briefly, a 50 μL drop of cell suspension was added to each well (1 × 10^5 cells/well) of a 48-well MEA plate (Axion BioSystems Inc., Atlanta, GA, United States, M768-GL1-30Pt200) coated with 0.1% polyethyleneimine (PEI). After 2 h, 450 μL dissection medium was added to each well. The day after the isolation (day in vitro 1; DIV1), 450 μL/well dissection medium was replaced with 450 μL/well glutamate medium. At DIV4, 450 μL/well glutamate medium was replaced with 450 μL/well FBS medium (for medium supplements see [Zwartsen et al., 2018], [2019]). Cultures were kept in FBS medium at 37°C, 5% CO2/95% air atmosphere until use at DIV9-10.
Microelectrode array recordings were performed as described in [Zwartsen et al. (2019)]. In short, neuronal activity was measured using a Maestro 768-channel amplifier (Axion BioSystems Inc., Atlanta, GA, United States). Baseline spontaneous neuronal activity was recorded for 30 min at 37°C, after which wells were exposed to selected synthetic cathinones under sterile conditions. Next, neuronal activity was determined during a 30 min “acute exposure” recording. […] Next, exposure medium was replaced with fresh FBS medium and the plate was incubated for 19 h at 37°C, until the 30 min “washout” recording, i.e., 24 h after the start of the exposure.
Effects of 3-MMC, 4-MMC, 4-MEC, pentedrone, 3-MMCinternet, and 4-MECinternet were tested at 1–1000 μM (final concentration). At the day of exposure, stocks and dilutions were freshly made in NB-A FBS medium (for medium supplements see [Zwartsen et al., 2019]). Data on methylone, α-PVP, and MDPV exposure have been published previously in [Zwartsen et al. (2019)]. For each experimental condition, primary cultures from two to three different isolations were used and tested in four to five plates (Nplates). The number of wells (nwells) represents the number of replicates per condition.
Microelectrode array data were analyzed as described in [Zwartsen et al. (2019)]. In short, parameters of interest after acute exposure were expressed as a percentage of the parameters prior to exposure to obtain a treatment ratio for each well (paired comparison; parameterexposure/parameterbaseline as % of control wells). The parameters after prolonged exposure and washout were also expressed as a percentage of the baseline parameters. Next, treatment ratios were grouped per parameter, condition, drug [e.g., mean spike rate (MSR) 10 μM 3-MMC] and exposure scenario (acute, prolonged, or washout).
Outliers (>mean ± 2×SD) for MSR (5.0%) were used to exclude wells on all parameters. Outliers for mean burst rate (MBR; 2.6%) and mean network burst rate (MNBR; 1.4%) were used to exclude wells on specific parameters (burst, network burst, and synchronicity parameters, or network burst and synchronicity parameters, respectively). Finally, the acute, prolonged, and washout control treatment ratios were set to 100% and treatment ratios of exposed wells were normalized to the average treatment ratio of medium control wells of the corresponding parameter and exposure scenario. Treatment ratios of exposed wells were averaged per parameter (e.g., MSR), condition (e.g., 100 μM), drug (e.g., methylone), and exposure scenario (e.g., acute exposure) and used for further statistical analyses [see [Zwartsen et al. (2019)] for more details on criteria, parameters, and exposure scenarios]. Neuronal activity (as % of control) is expressed as mean ± SEM of nwells from Nplates. As the spike, burst, and network burst rates were among the most sensitive parameters, these parameters are presented in the manuscript. Additional parameters are presented in Supplementary Figure 2.
Concentration–response curves were made for transporter, MEA, and cell viability assays. […]

[1] = 0.5 h, acute exposure 30 min, read-out: Neuronal activity IC50, mean burst rate (MBR), acute
[2] = 0.5 h, acute exposure 30 min, read-out: Neuronal activity IC50, mean network burst rate (MNBR), acute
[3] = 0.5 h, acute exposure 30 min, read-out: Neuronal activity IC50, mean spike rate (MSR), acute
[4] = 19 h washout, 24 h after start of exposure, read-out: Neuronal activity IC50, mean burst rate (MBR), recovery
[5] = 19 h washout, 24 h after start of exposure, read-out: Neuronal activity IC50, mean network burst rate (MNBR), recovery
[6] = 19 h washout, 24 h after start of exposure, read-out: Neuronal activity IC50, mean spike rate (MSR), recovery
[7] = prolonged exposure 4.5 h, read-out: Neuronal activity IC50, mean burst rate (MBR), prolonged
[8] = prolonged exposure 4.5 h, read-out: Neuronal activity IC50, mean network burst rate (MNBR), prolonged
[9] = prolonged exposure 4.5 h, read-out: Neuronal activity IC50, mean spike rate (MSR), prolonged

Structure (SMILES)	IC50 [1] [µM]	IC50 [2] [µM]	IC50 [3] [µM]	IC50 [4] [µM]	IC50 [5] [µM]	IC50 [6] [µM]	IC50 [7] [µM]	IC50 [8] [µM]	IC50 [9] [µM]	Increased potency to inhibit neuronal activity (MSR, MBR, and MNBR) compared to cathinones lacking the lengthened alkyl chain	Neuronal activity following washout (highest concentration (1000 μM), washout 24 h after start of exposure)
CNC(C)C(=O)c1cccc(C)c1 (centres unmarked) [3-MMC, 2-(methylamino)-1-(3-methylphenyl) propan-1-one]	79	67	65	> 1000	> 1000						
CCNC(C)C(=O)c1ccc(C)cc1 (centres unmarked) [4-MEC, 2-(ethylamino)-1-(4-methylphenyl) propan-1-one]	74	68	73	> 1000	> 1000	> 1000					
CNC(C)C(=O)c1ccc(C)cc1 (centres unmarked) [4-MMC, 2-(methylamino)-1-(4-methylphenyl) propan-1-one]	118	120	101	> 1000	> 1000	> 1000	147	167	114		
CCCC(C(=O)c1ccc2c(c1)OCO2)N1CCCC1 (centres unmarked) [MDPV, 1-(1,3-benzodioxol-5-yl)-2-pyrro lidin-1-ylpentan-1-one]										two to fourfold	
CCCC(NC)C(=O)c1ccccc1 (centres unmarked) [Pentedrone, 2-(methylamino)-1-phenyl pentan-1-one]	26	23	23				28	28	27	two to fourfold	remained fully inhibited

— PMC7000521, “Hazard Characterization of Synthetic Cathinones Using Viability, Monoamine Reuptake, and Neuronal Activity Assays” (Frontiers in Neuroscience, 2020)
